How the values were obtained:
Experiment in all cases: KINOMEscan competition binding assay
ALK = molecular target: T1, ALK (Homo sapiens, UniProt Q9UM73); conditions: LL6 at 10 μM; read-out: Percent Control
T1 construct: purchased DiscoverX KINOMEscan
Procedure: (§1) Kd values were obtained by KINOMEscan from DiscoverX (San Diego, CA, USA). To briefly summarize, Kd was measured by a competition binding assay that quantitatively measures the ability of a compound to compete with an immobilized ligand. […] Dose response curves of 11 points are obtained for Kd values, which are measured in duplicate. See more details in the cited references [39]-[42] and see also at www.discoverx.com.

BMPR2 = molecular target: T2, BMPR2 (Homo sapiens, UniProt Q13873); conditions: LL6 at 10 μM; read-out: Percent Control
T2 construct: purchased DiscoverX KINOMEscan
Procedure: as §1

CDK2 = molecular target: T3, CDK2 (Homo sapiens, UniProt P24941); conditions: LL6 at 10 μM; read-out: Percent Control
T3 construct: purchased DiscoverX KINOMEscan
Procedure: as §1

CDK3 = molecular target: T4, CDK3 (Homo sapiens, UniProt Q00526); conditions: LL6 at 10 μM; read-out: Percent Control
T4 construct: purchased DiscoverX KINOMEscan
Procedure: as §1

CDK7 = molecular target: T5, CDK7 (Homo sapiens, UniProt P50613); conditions: LL6 at 10 μM; read-out: Percent Control
T5 construct: purchased DiscoverX KINOMEscan
T5 sequence (P50613 whole entry): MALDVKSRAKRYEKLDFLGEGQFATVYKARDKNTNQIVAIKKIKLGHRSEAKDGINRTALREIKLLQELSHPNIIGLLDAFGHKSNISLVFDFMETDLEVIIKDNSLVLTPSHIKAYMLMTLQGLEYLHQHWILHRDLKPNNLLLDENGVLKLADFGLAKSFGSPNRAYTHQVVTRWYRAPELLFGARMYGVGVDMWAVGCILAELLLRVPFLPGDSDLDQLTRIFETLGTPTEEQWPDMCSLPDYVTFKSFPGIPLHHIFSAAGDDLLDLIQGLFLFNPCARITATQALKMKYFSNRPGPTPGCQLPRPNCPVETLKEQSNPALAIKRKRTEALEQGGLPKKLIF
Procedure: as §1

CSF1R = molecular target: T6, CSF1R (Homo sapiens, UniProt P07333)
T6 construct: purchased DiscoverX (KINOMEscan service)
T6 sequence (P07333 20-972): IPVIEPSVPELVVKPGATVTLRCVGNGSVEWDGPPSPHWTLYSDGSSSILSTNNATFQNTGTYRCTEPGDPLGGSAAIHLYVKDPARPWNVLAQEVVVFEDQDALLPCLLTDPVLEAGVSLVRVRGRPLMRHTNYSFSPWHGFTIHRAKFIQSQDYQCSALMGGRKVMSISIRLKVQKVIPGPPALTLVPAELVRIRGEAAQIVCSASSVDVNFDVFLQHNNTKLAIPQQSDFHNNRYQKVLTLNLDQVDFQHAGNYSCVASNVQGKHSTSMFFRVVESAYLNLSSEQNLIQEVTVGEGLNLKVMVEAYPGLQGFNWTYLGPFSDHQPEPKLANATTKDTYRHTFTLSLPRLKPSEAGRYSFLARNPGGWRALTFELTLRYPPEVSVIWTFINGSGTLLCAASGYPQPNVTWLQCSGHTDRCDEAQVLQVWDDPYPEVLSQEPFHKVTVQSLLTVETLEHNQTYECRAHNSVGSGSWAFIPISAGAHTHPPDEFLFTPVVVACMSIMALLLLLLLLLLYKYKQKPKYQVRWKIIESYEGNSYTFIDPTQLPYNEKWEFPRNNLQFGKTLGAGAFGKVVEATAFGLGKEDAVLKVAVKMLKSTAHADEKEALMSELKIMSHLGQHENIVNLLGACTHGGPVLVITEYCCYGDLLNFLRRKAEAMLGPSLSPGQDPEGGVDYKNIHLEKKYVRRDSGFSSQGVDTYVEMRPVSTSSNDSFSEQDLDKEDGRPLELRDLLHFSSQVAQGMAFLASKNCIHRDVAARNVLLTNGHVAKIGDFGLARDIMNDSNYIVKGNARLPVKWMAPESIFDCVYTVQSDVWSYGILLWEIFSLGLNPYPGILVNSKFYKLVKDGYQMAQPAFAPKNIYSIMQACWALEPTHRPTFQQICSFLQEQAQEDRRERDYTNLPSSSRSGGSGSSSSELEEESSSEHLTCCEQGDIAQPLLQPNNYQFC
Procedure: as §1

DCAMKL1 = molecular target: T7, DCAMKL1 (Homo sapiens, UniProt O15075); conditions: LL6 at 10 μM; read-out: Percent Control
T7 construct: purchased DiscoverX KINOMEscan
Procedure: as §1

EGFR = molecular target: T8, EGFR (Homo sapiens, UniProt P00533); conditions: LL6 at 10 μM; read-out: Percent Control
T8 construct: purchased DiscoverX KINOMEscan
Procedure: as §1

EGFR(L858R) = molecular target: T9, EGFR(L858R) (Homo sapiens, UniProt P00533, L858R); conditions: LL6 at 10 μM; read-out: Percent Control
T9 construct: purchased DiscoverX KINOMEscan
Procedure: as §1

ERBB2 = molecular target: T10, ERBB2 (Homo sapiens, UniProt P04626); conditions: LL6 at 10 μM; read-out: Percent Control
T10 construct: purchased DiscoverX KINOMEscan
Procedure: as §1

ERK1 = molecular target: T11, ERK1 (Homo sapiens, UniProt P27361); conditions: LL6 at 10 μM; read-out: Percent Control
T11 construct: purchased DiscoverX KINOMEscan
T11 sequence (P27361 whole entry): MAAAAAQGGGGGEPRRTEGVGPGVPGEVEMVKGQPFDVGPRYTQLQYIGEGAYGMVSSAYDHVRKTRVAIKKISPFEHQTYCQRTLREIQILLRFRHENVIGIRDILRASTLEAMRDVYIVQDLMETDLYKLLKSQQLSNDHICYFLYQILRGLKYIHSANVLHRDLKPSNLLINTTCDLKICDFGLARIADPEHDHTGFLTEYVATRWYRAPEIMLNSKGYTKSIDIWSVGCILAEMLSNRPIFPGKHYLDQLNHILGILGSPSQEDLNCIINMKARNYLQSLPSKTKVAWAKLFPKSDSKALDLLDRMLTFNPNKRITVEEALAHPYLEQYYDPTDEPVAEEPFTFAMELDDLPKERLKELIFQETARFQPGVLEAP
Procedure: as §1

FGFR2 = molecular target: T12, FGFR2 (Homo sapiens, UniProt P21802); conditions: LL6 at 10 μM; read-out: Percent Control
T12 construct: purchased DiscoverX KINOMEscan
Procedure: as §1

FLT3 = molecular target: T13, FLT3 (Homo sapiens, UniProt P36888); conditions: LL6 at 10 μM; read-out: Percent Control
T13 construct: purchased DiscoverX KINOMEscan
Procedure: as §1

GSK3B = molecular target: T14, GSK3B (Homo sapiens, UniProt P49841); conditions: LL6 at 10 μM; read-out: Percent Control
T14 construct: purchased DiscoverX KINOMEscan
Procedure: as §1

IKK-alpha = molecular target: T15, IKK-alpha (Homo sapiens, UniProt O15111); conditions: LL6 at 10 μM; read-out: Percent Control
T15 construct: purchased DiscoverX KINOMEscan
Procedure: as §1

[1] = molecular target: T16, JAK3(JH1domain-catalytic) (Homo sapiens, UniProt P52333); conditions: LL6 at 10 μM; read-out: Percent Control
T16 construct: JAK3(JH1domain-catalytic); purchased DiscoverX KINOMEscan
T16 sequence (P52333 822-1111 limits assumed): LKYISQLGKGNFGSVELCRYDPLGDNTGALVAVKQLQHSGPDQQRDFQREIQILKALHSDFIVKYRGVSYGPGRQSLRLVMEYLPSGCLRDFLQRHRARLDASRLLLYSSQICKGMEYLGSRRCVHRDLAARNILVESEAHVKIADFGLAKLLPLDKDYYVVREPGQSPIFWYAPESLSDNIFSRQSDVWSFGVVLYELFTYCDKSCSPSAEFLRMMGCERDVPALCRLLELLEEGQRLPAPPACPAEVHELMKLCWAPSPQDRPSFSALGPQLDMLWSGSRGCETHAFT
Procedure: as §1

JNK1 = molecular target: T17, JNK1 (Homo sapiens, UniProt P45983); conditions: LL6 at 10 μM; read-out: Percent Control
T17 construct: purchased DiscoverX KINOMEscan
Procedure: as §1

LKB1 = molecular target: T18, LKB1 (Homo sapiens, UniProt Q15831); conditions: LL6 at 10 μM; read-out: Percent Control
T18 construct: purchased DiscoverX KINOMEscan
T18 sequence (Q15831 whole entry): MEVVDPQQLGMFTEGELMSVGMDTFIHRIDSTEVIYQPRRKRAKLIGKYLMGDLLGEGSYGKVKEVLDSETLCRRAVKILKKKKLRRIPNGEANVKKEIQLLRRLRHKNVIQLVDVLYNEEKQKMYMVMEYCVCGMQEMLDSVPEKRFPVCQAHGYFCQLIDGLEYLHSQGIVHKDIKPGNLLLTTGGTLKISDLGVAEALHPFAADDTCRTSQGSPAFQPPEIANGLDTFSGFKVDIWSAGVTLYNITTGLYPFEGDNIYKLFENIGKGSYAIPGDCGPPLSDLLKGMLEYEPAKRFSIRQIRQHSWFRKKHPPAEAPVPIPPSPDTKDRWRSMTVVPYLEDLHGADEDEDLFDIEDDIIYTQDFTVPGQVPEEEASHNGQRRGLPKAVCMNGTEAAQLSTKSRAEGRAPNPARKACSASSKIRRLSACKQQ
Procedure: as §1

MAP3K4 = molecular target: T19, MAP3K4 (Homo sapiens, UniProt Q9Y6R4); conditions: LL6 at 10 μM; read-out: Percent Control
T19 construct: purchased DiscoverX KINOMEscan
Procedure: as §1

MAPKAPK2 = molecular target: T20, MAPKAPK2 (Homo sapiens, UniProt P49137); conditions: LL6 at 10 μM; read-out: Percent Control
T20 construct: purchased DiscoverX KINOMEscan
Procedure: as §1

MARK3 = molecular target: T21, MARK3 (Homo sapiens, UniProt P27448); conditions: LL6 at 10 μM; read-out: Percent Control
T21 construct: purchased DiscoverX KINOMEscan
Procedure: as §1

MEK1 = molecular target: T22, MEK1 (Homo sapiens, UniProt Q02750); conditions: LL6 at 10 μM; read-out: Percent Control
T22 construct: purchased DiscoverX KINOMEscan
Procedure: as §1

MEK2 = molecular target: T23, MEK2 (Homo sapiens, UniProt P36507); conditions: LL6 at 10 μM; read-out: Percent Control
T23 construct: purchased DiscoverX KINOMEscan
Procedure: as §1

MKNK1 = molecular target: T24, MKNK1 (Homo sapiens, UniProt Q9BUB5); conditions: LL6 at 10 μM; read-out: Percent Control
T24 construct: purchased DiscoverX KINOMEscan
Procedure: as §1

PAK4 = molecular target: T25, PAK4 (Homo sapiens, UniProt O96013); conditions: LL6 at 10 μM; read-out: Percent Control
T25 construct: purchased DiscoverX KINOMEscan
Procedure: as §1

PCTK1 = molecular target: T26, PCTK1 (Homo sapiens, UniProt Q00536); conditions: LL6 at 10 μM; read-out: Percent Control
T26 construct: purchased DiscoverX KINOMEscan
Procedure: as §1

PDGFRA = molecular target: T27, PDGFRA (Homo sapiens, UniProt P16234); conditions: LL6 at 10 μM; read-out: Percent Control
T27 construct: purchased DiscoverX KINOMEscan
Procedure: as §1

PDGFRB = molecular target: T28, PDGFRB (Homo sapiens, UniProt P09619)
T28 construct: purchased DiscoverX KINOMEscan
T28 sequence (P09619 33-1106): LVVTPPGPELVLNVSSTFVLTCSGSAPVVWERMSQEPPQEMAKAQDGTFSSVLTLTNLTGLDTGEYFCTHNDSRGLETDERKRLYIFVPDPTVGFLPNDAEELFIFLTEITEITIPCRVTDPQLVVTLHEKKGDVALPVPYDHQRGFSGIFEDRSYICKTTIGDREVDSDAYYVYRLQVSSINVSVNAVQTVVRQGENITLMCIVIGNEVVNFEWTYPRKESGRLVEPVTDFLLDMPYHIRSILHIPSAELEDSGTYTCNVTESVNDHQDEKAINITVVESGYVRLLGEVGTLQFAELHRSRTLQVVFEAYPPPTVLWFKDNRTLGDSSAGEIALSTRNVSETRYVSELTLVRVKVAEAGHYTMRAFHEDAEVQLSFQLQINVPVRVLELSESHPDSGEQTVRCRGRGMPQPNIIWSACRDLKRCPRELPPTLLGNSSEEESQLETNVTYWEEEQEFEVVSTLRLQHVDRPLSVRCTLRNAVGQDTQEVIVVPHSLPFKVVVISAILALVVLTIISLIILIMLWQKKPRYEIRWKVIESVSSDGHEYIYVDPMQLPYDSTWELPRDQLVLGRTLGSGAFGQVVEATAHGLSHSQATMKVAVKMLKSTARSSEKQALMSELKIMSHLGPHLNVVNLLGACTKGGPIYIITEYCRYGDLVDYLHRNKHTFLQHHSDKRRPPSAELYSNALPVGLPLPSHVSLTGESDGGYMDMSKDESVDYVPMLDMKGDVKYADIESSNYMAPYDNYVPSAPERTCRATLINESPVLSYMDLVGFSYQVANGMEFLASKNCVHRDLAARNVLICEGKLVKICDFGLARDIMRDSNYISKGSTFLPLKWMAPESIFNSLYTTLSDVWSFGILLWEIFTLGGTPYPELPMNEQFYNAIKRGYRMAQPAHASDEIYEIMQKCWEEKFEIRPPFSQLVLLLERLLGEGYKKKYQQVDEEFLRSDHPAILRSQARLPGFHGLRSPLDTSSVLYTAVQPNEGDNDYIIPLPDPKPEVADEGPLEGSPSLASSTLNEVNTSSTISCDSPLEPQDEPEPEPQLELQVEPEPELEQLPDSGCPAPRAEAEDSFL
Procedure: as §1

PDPK1 = molecular target: T29, PDPK1 (Homo sapiens, UniProt O15530); conditions: LL6 at 10 μM; read-out: Percent Control
T29 construct: purchased DiscoverX KINOMEscan
Procedure: as §1

PIK3CA = molecular target: T30, PIK3CA (Homo sapiens, UniProt P42336); conditions: LL6 at 10 μM; read-out: Percent Control
T30 construct: purchased DiscoverX KINOMEscan
Procedure: as §1

PIK3CG = molecular target: T31, PIK3CG (Homo sapiens, UniProt P48736); conditions: LL6 at 10 μM; read-out: Percent Control
T31 construct: purchased DiscoverX KINOMEscan
Procedure: as §1

PRKCE = molecular target: T32, PRKCE (Homo sapiens, UniProt Q02156); conditions: LL6 at 10 μM; read-out: Percent Control
T32 construct: purchased DiscoverX KINOMEscan
Procedure: as §1

RAF1 = molecular target: T33, RAF1 (Homo sapiens, UniProt P04049); conditions: LL6 at 10 μM; read-out: Percent Control
T33 construct: purchased DiscoverX KINOMEscan
Procedure: as §1

RET = molecular target: T34, RET (Homo sapiens, UniProt P07949); conditions: LL6 at 10 μM; read-out: Percent Control
T34 construct: purchased DiscoverX KINOMEscan
Procedure: as §1

RIOK2 = molecular target: T35, RIOK2 (Homo sapiens, UniProt Q9BVS4); conditions: LL6 at 10 μM; read-out: Percent Control
T35 construct: purchased DiscoverX KINOMEscan
Procedure: as §1

SRPK3 = molecular target: T36, SRPK3 (Homo sapiens, UniProt Q9UPE1); conditions: LL6 at 10 μM; read-out: Percent Control
T36 construct: purchased DiscoverX KINOMEscan
Procedure: as §1

TGFBR1 = molecular target: T37, TGFBR1 (Homo sapiens, UniProt P36897); conditions: LL6 at 10 μM; read-out: Percent Control
T37 construct: purchased DiscoverX KINOMEscan
Procedure: as §1

TIE2 = molecular target: T38, TIE2 (Homo sapiens, UniProt Q02763); conditions: LL6 at 10 μM; read-out: Percent Control
T38 construct: purchased DiscoverX KINOMEscan
Procedure: as §1

ULK2 = molecular target: T39, ULK2 (Homo sapiens, UniProt Q8IYT8); conditions: LL6 at 10 μM; read-out: Percent Control
T39 construct: purchased DiscoverX KINOMEscan
Procedure: as §1

YANK3 = molecular target: T40, YANK3 (Homo sapiens, UniProt Q86UX6); conditions: LL6 at 10 μM; read-out: Percent Control
T40 construct: purchased DiscoverX KINOMEscan
Procedure: as §1

ZAP70 = molecular target: T41, ZAP70 (Homo sapiens, UniProt P43403); conditions: LL6 at 10 μM; read-out: Percent Control
T41 construct: purchased DiscoverX KINOMEscan
Procedure: as §1

[2] = LL6 at 10 μM, read-out: Percent Control

T1 sequence (Q9UM73 19-1620): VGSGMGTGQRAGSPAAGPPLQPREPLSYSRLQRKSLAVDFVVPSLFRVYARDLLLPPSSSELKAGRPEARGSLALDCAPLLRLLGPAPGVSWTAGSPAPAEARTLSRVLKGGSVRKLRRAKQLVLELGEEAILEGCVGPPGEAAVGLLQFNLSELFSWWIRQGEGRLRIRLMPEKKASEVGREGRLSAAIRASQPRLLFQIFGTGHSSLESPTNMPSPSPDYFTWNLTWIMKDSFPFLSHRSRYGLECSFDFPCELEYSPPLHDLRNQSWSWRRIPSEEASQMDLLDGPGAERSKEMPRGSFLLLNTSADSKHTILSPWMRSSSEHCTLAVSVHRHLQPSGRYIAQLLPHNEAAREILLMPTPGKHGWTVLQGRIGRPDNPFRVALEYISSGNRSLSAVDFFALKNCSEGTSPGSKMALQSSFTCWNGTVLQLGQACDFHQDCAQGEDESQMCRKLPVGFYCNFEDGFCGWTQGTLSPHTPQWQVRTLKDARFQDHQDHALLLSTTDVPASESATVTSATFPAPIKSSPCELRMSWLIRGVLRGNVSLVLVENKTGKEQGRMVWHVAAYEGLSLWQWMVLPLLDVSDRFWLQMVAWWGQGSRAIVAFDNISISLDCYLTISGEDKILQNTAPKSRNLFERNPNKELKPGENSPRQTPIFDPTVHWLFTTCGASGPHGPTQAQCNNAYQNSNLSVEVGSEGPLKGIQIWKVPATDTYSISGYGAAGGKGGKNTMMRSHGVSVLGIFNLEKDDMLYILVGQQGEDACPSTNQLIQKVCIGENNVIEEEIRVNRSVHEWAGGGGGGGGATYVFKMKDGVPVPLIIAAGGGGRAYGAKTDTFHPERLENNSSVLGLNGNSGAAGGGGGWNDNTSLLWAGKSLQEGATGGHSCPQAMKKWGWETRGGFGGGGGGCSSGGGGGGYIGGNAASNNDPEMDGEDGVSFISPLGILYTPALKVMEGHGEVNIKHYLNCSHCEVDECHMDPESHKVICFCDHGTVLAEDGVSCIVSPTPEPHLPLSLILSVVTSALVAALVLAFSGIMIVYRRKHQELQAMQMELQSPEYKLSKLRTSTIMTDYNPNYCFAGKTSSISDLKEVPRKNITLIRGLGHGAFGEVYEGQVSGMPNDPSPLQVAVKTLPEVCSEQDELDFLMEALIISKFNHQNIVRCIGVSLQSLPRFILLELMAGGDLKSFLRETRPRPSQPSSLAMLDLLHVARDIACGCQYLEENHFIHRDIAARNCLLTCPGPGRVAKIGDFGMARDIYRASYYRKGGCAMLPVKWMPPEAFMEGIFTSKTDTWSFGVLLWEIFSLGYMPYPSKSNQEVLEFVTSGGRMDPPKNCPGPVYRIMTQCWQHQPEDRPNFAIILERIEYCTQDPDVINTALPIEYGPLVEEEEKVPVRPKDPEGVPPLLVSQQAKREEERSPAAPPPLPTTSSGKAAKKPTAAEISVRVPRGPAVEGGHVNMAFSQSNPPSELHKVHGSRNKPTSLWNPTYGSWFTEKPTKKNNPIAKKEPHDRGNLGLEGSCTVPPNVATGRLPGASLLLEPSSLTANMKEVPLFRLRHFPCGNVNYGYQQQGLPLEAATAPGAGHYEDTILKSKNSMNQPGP

SMILES: Nc1ncnc2c1c(-c1ccc(Cl)cc1)nn2CCn1cc(COc2ccc(Nc3nccc(Nc4cnc5ccccc5c4)n3)cc2)nn1 [LL6]
- remaining binding at 10 µM (ALK): 100%
- remaining binding at 10 µM (BMPR2): 40%
- remaining binding at 10 µM (CDK2): 99%
- remaining binding at 10 µM (CDK3): 97%
- remaining binding at 10 µM (CDK7): 56%
- Kd (CSF1R; CSF1R, 11-point dose response, duplicate): did not show dose-dependent inhibition curves
- inhibition at 10 µM (CSF1R; CSF1R, LL6 at 10 µM): > 65%
- remaining binding at 10 µM (CSF1R; [2]): 29%
- remaining binding at 10 µM (DCAMKL1): 100%
- remaining binding at 10 µM (EGFR): 82%
- remaining binding at 10 µM (EGFR(L858R)): 88%
- remaining binding at 10 µM (ERBB2): 100%
- remaining binding at 10 µM (ERK1): 100%
- remaining binding at 10 µM (FGFR2): 62%
- remaining binding at 10 µM (FLT3): 43%
- remaining binding at 10 µM (GSK3B): 67%
- remaining binding at 10 µM (IKK-alpha): 100%
- remaining binding at 10 µM [1]: 100%
- remaining binding at 10 µM (JNK1): 100%
- remaining binding at 10 µM (LKB1): 90%
- remaining binding at 10 µM (MAP3K4): 75%
- remaining binding at 10 µM (MAPKAPK2): 100%
- remaining binding at 10 µM (MARK3): 100%
- remaining binding at 10 µM (MEK1): 65%
- remaining binding at 10 µM (MEK2): 95%
- remaining binding at 10 µM (MKNK1): 100%
- remaining binding at 10 µM (PAK4): 97%
- remaining binding at 10 µM (PCTK1): 78%
- remaining binding at 10 µM (PDGFRA): 64%
- remaining binding at 10 µM (PDGFRB; [2]): 5%
- inhibition at 10 µM (PDGFRB; PDGFRB, LL6 at 10 µM): > 65%
- remaining binding at 10 µM (PDPK1): 87%
- remaining binding at 10 µM (PIK3CA): 100%
- remaining binding at 10 µM (PIK3CG): 63%
- remaining binding at 10 µM (PRKCE): 100%
- remaining binding at 10 µM (RAF1): 82%
- remaining binding at 10 µM (RET): 81%
- remaining binding at 10 µM (RIOK2): 100%
- remaining binding at 10 µM (SRPK3): 84%
- remaining binding at 10 µM (TGFBR1): 46%
- remaining binding at 10 µM (TIE2): 62%
- remaining binding at 10 µM (ULK2): 96%
- remaining binding at 10 µM (YANK3): 100%
- remaining binding at 10 µM (ZAP70): 100%

— paper PMC7778606, “Development of the phenylpyrazolo[3,4-d]pyrimidine-based, insulin-like growth factor receptor/Src/AXL-targeting small molecule kinase inhibitor” (Theranostics, 2021)
